Assay results from patent US20250179047A1, “5-[7-(3,4-DIHYDRO-1H-ISOQUINOLINE-2-CARBONYL)-1,2,3,4 TETRAHYDROISOQUINOLIN-6-YL]-1H-PYRROLE-3-CARBOXAMIDE DERIVATIVES, PHARMACEUTICAL COMPOSITIONS CONTAINING THEM AND THEIR USES AS PRO-APOPTOTIC AGENTS” (LES LABORATOIRES SERVIER, priority 2022, published 2025).
Read-outs that look alike come from different tables or passages of the source.

Assays:
[1] = system: KMS-12-PE Bcl-2 G101V; assay: In vitro cytotoxicity CellTiter-Glo 48 h, KMS-12-PE Bcl-2 G101V; assay type: cell-based; details: for Ratio (G101V/WT): C50 KMS-12-PE Bcl-2 G101V over C50 KMS-12-PE Bcl-2 WT; for IC50: Homo sapiens, KMS-12-PE, 48 h, CellTiter-Glo, C50 = concentration needed to reach 50% of the cellular viability
Outline: (§1)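 Transduce KMS-12-PE with Bcl-2 WT or G101V lentivirus, then FACS-sort RFP-positive cells. Add compounds in an 11-point dilution series and incubate 48 h at 37 °C. Measure ATP-based luminescence with CellTiter-Glo and derive C50 (50% viability).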

[2] = system: BCL2 G101V; assay: TR-FRET competitive binding assay, BCL2 G101V; set-up: species or system human; details: for TR_FRET EKI G101V/WT selectivty ratio: ratio Ki BCL2 G101V / Ki BCL2 WT; for TR_FRET EKI G101V/WT selectivty: ratio of Ki BCL2 G101V to BCL2 WT
Outline: (§2)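 Terbium-labelled N-terminal Halo-fusion BCL2 or BCLXL (E. coli), 0.5 nM, competed against fluorescein-labelled PUMA peptide (2 or 20 nM) for 2 h at 23° C in 50 mM Hepes pH 7.5, 150 mM NaCl, 5% DMSO. TR-FRET 520/495 nm ratio gave IC50 by four-parameter fit; Ki derived from IC50.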

[3] = target: BCL2 G101V (Homo sapiens, UniProt P10415, G101V); assay: TR-FRET competitive binding assay, BCL2 G101V; details: BCL2 G101V; Ki determined from IC50; read-out: TR_FRET EKI_Bcl2 G101V
Outline: as §2

[4] = target: BCL2 WT (Homo sapiens (Human), UniProt P10415); assay: TR-FRET competitive binding assay, BCL2 WT
Outline: as §2

[5] = system: KMS-12-PE Bcl-2 WT; assay: In vitro cytotoxicity CellTiter-Glo 48 h, KMS-12-PE Bcl-2 WT; assay type: cell-based; details: Homo sapiens, KMS-12-PE, C50 = concentration needed to reach 50% of the cellular viability
Outline: as §1

[6] = target: BCL2 F104I (Homo sapiens, UniProt P10415, F104I); assay: TR-FRET competitive binding assay, BCL2 F104I; details: Ki determined from IC50, read-out: TR_FRET EKI_Bcl2 F104I
Experimental: The relative binding potency of each compound was determined in a competitive binding assay using time resolved-fluorescence resonance energy transfer (TR-FRET). The method utilised a fluorescein labelled peptide derived from PUMA (5Flu-Ahx-[…]-NH2 wherein Ahx means 6-hexanoic acid monomer and the amino acid sequence is referred to as SEQ ID:01) which binds to a terbium labelled BCL2 or BCLXL protein. The degree of binding or corresponding compound inhibition can be quantified by the TR-FRET signal between the terbium donor and fluorescein acceptor.
The human BCL2_wild-type (also named BCL2_wt), BCL2_G101V mutant and BCLXL_wild-type were E. coli expressed as a N-terminal Halo-fusion proteins and singly labelled with Terbium on the Halo protein to afford the following amino acid sequences:
wherein the BCL2(1-207) sequence corresponds to UniProtKB® primary accession number P10415 and the BCLXL(2-196) sequence corresponds to UniProtKB® primary accession number Q07817-1.
The assay was performed in a 40 μL volume in white 384-standard well plates (Corning #3574). An 11-point serial dilution of each compound was prepared in DMSO and transferred directly to plate followed by addition of fluorescein labelled peptide and lastly protein. Final assay conditions were 0.5 nM BCL2_wt, BCL2_G101V, BCL2_D103Y, BCL2_F104I, BCL2_D111A or BCLXL_wt, 2 or 20 nM fluorescein labelled peptide, 50 mM Hepes pH 7.5, 150 mM NaCl, 0.5 mM TCEP (Tris(2-carboxyethyl)phosphine), 0.05% Tween 20, 5% DMSO. The mixture was incubated for 2 hours at 23° C.
TR-FRET measurements were performed on a Biotek Synergy Neo plate reader. TR-FRET was measured by excitation of the Terbium-donor at 340 nm and subsequent (delay time 100 μs) measurement of terbium and fluorescein emission at 495 nm and 520 nm, respectively, over a collection time of 300 μs. The TR-FRET signal was calculated as the emission-ratio at 520 nm over 495 nm.
The TR-FRET ratio readout for test compounds was normalized against 0% inhibition controls wells and 100% inhibition control wells. Test compound potency (IC50) was estimated by nonlinear regression using the sigmoidal dose-response (variable slope) using Xlfit 4 (IDBS, Guildford, Surrey, UK, model 205). Were the IC50 could not be determined the % inhibition at the highest tested concentration is given.
y=(A+((B−A)/(1+((C/x)^D))))
where y is the normalized TR-TRET ratio measurement for a given concentration of test compound, x is the concentration of test compound, A is the estimated efficacy (% inhibition) at infinite compound dilution, and B is the maximal efficacy (% inhibition). C is the IC50 value and D is the Hill slope coefficient.
The K1 values were determined from the IC50 values according to Cer et al, Nucleic Acids Res, 2009, July 1; 37 (WebServer issue): W441-W445.

[7] = target: BCL2 D103Y (Homo sapiens, UniProt P10415, D103Y); assay: TR-FRET competitive binding assay, BCL2 D103Y; details: Ki determined from IC50, read-out: TR_FRET EKI_Bcl2 D103Y
Outline: as §2

[8] = target: BCLXL WT (Homo sapiens (Human), UniProt Q07817); assay: TR-FRET competitive binding assay, BCLXL WT; details: for Ki: BCLXL WT, Ki determined from IC50, read-out: TR_FRET EKI BclxL; for TR_FRET EKI BCLxL/WT selectivty ratio: ratio Ki BCLxL / Ki BCL2 WT; for TR_FRET EKI BCLxL/WT selectivty: ratio of Ki BCLxL to BCL2 WT
Chain of BCLXL WT (Q07817 other isoform, or with tags, fused parts or gaps): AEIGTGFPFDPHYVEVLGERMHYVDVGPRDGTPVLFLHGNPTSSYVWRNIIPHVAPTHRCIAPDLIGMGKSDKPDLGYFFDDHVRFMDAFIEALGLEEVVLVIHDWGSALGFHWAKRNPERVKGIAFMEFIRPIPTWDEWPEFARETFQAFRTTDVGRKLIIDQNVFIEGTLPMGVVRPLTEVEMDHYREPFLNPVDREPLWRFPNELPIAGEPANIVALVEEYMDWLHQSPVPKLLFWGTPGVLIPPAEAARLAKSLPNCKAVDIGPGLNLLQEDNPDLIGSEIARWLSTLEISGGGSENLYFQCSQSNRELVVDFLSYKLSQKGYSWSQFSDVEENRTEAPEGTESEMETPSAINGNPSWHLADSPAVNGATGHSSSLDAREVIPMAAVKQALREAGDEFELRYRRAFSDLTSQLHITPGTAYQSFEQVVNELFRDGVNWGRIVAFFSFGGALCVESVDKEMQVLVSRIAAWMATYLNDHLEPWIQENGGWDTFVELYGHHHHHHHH
Outline: as §2

[9] = Ki determined from IC50, read-out: TR_FRET EKI_Bcl2 WT
[10] = Ki determined from IC50, read-out: TR_FRET EKI_Bcl2

Compound | TR_FRET EKI G101V/WT selectivty ratio [2] | Ki [3] [nM] | Ki [4, 9] [nM] | Ki [6] [nM] | Ki [7] [nM] | Ki [8] [nM] | TR_FRET EKI BCLxL/WT selectivty ratio [8] | TR_FRET EKI BCLxL/WT selectivty [8] | TR_FRET EKI G101V/WT selectivty [2] | Ki [4, 10] [nM] | Ratio (G101V/WT) [1] | IC50 [1] [µM] | IC50 [5] [µM]
Cc1cccc(CC(=O)N2CCc3cc(-c4cc(C(=O)N(c5ccc(O)cc5)c5cc(C#N)n(C)c5C)c(C)n4C)c(C(=O)N4Cc5ccccc5C[C@H]4C)cc3C2)c1 [Example 1, N-(5-cyano-1,2-dimethyl-1H-pyrrol-3-yl)-N-(4-hydroxyphenyl)-1,2-dimethyl-5-{7-[(3R)-3-methyl-1,2,3,4-tetrahydroisoquinoline-2-carbonyl]-2-[2-(3-methylphenyl)acetyl]-1,2,3,4-tetrahydroisoquinolin-6-yl}-1H-pyrrole-3-carboxamide] | 6.5 | 2.2 | 0.34 | 6.12 |  |  |  |  |  |  | 8.92 | 0.0776 | 0.0087
Cc1c(C(=O)N(c2ccccc2)c2cc(C#N)n(CCO)c2C)cc(-c2cc3c(cc2C(=O)N2Cc4ccccc4C[C@H]2C)CN(C(=O)Cc2ccccc2)CC3)n1C [Example 4, N-[5-cyano-1-(2-hydroxyethyl)-2-methyl-pyrrol-3-yl]-1,2-dimethyl-5-[7-[(3R)-3-methyl-3,4-dihydro-1H-isoquinoline-2-carbonyl]-2-(2-phenylacetyl)-3,4-dihydro-1H-isoquinolin-6-yl]-N-phenyl-pyrrole-3-carboxamide] | 30.2 | 3.2 | 0.11 | 11.9 |  |  |  |  |  |  | 25.9 | 0.124 | 0.0048
Cc1c(N(C(=O)c2cc(-c3cc4c(cc3C(=O)N3Cc5ccccc5C[C@H]3C)CN(C(=O)Cc3cccc(N5CCN6CCOC[C@@H]6C5)c3)CC4)n(C)c2C)c2ccccc2)cc(C#N)n1C [Example 8, 5-[2-(2-{3-[(9aS)-hexahydro-1H-piperazino[2,1-c]morpholin-8-yl]phenyl}acetyl)-7-{[(3R)-3-methyl-3,4-dihydro-1H-isoquinolin-2-yl]carbonyl}-3,4-dihydro-1H-isoquinolin-6-yl]-N-(5-cyano-1,2-dimethylpyrrol-3-yl)-1,2-dimethyl-N-phenylpyrrole-3-carboxamide] | 20.3 | 1.2 | 0.06 | 3.46 |  | 2.8 | 47.46 |  |  |  | 27.6 | 0.0727 | 0.0026
Cc1ncc(N(C(=O)c2cc(-c3cc4c(cc3C(=O)N3Cc5ccccc5C[C@H]3CN3CCCCC3)CN(C(=O)Cc3ccc(OCCN5CCOCC5)cc3F)CC4)n(C)c2C)c2ccc(O)cc2)cc1C#N [Example 177, N-(5-cyano-6-methyl-3-pyridyl)-5-[2-[2-[2-fluoro-4-(2-morpholinoethoxy)phenyl]acetyl]-7-[(3S)-3-(1-piperidylmethyl)-3,4-dihydro-1H-isoquinoline-2-carbonyl]-3,4-dihydro-1H-isoquinolin-6-yl]-N-(4-hydroxyphenyl)-1,2-dimethyl-pyrrole-3-carboxamide] | 10.0 | 0.5 | 0.05 |  | 0.12 | 12.4 | 229.0 |  |  |  | 11.238 | 0.0581 | 0.0052
COc1ccc(N(C(=O)c2cc(-c3cc4c(cc3C(=O)N3Cc5ccccc5C[C@H]3CN(C)C(C)C)CN(C(=O)Cc3ccc(OCCN5CCOCC5)cc3F)CC4)n(C)c2C)c2ccc(O)cc2)cc1C#N [Example 179, N-(3-cyano-4-methoxy-phenyl)-5-[2-[2-[2-fluoro-4-(2-morpholinoethoxy)phenyl]acetyl]-7-[(3S)-3-[[isopropyl(methyl)amino]methyl]-3,4-dihydro-1H-isoquinoline-2-carbonyl]-3,4-dihydro-1H-isoquinolin-6-yl]-N-(4-hydroxyphenyl)-1,2-dimethyl-pyrrole-3-carboxamide] | 14.7 | 0.6 | 0.04 |  | 0.13 | 6.1 | 148.0 |  |  |  | 9.658 | 0.113 | 0.0117

More lines, in order of falling Ki [3], values ahead:

TR_FRET EKI G101V/WT selectivty ratio [2] | Ki [3] [nM] | Ki [4, 9] [nM] | Ki [6] [nM] | Ki [7] [nM] | Ki [8] [nM] | TR_FRET EKI BCLxL/WT selectivty ratio [8] | TR_FRET EKI BCLxL/WT selectivty [8] | TR_FRET EKI G101V/WT selectivty [2] | Ki [4, 10] [nM] | Compound | Ratio (G101V/WT) [1] | IC50 [1] [µM] | IC50 [5] [µM]
7.3 | 1.3 | 0.18 | 4.45 |  |  |  |  |  |  | Cc1c(N(C(=O)c2cc(-c3cc4c(cc3C(=O)N3Cc5ccccc5C[C@H]3C)CN(C(=O)Cc3ccc(F)cc3)CC4)n(C)c2C)c2ccc(O)cc2)cc(C#N)n1C [Example 5, N-(5-cyano-1,2-dimethyl-1H-pyrrol-3-yl)-5-{2-[2-(4-fluorophenyl)acetyl]-7-[(3R)-3-methyl-1,2,3,4-tetrahydroisoquinoline-2-carbonyl]-1,2,3,4-tetrahydroisoquinolin-6-yl}-N-(4-hydroxyphenyl)-1,2-dimethyl-1H-pyrrole-3-carboxamide] | 4.98 | 0.0285 | 0.0057
5.7 | 0.8 | 0.14 | 2.6 | 0.88 |  |  |  |  |  | COc1cccc(CC(=O)N2CCc3cc(-c4cc(C(=O)N(c5ccc(O)cc5)c5cc(C#N)n(C)c5C)c(C)n4C)c(C(=O)N4Cc5ccccc5C[C@H]4C)cc3C2)c1 [Example 7, N-(5-cyano-1,2-dimethyl-1H-pyrrol-3-yl)-N-(4-hydroxyphenyl)-5-{2-[2-(3-methoxyphenyl)acetyl]-7-[(3R)-3-methyl-1,2,3,4-tetrahydroisoquinoline-2-carbonyl]-1,2,3,4-tetrahydroisoquinolin-6-yl}-1,2-dimethyl-1H-pyrrole-3-carboxamide] | 12.2 | 0.0713 | 0.0058
 | 0.13 |  |  | 0.11 | 0.89 |  | 28.7 | 4.2 | 0.031 | Cc1c(N(C(=O)c2cc(-c3cc4c(cc3C(=O)N3Cc5ccccc5C[C@H]3C)CN(C(=O)Cc3ccc(OCCNCCF)cc3)CC4)n(C)c2C)c2ccc(O)cc2)cc(C#N)n1C [Example 235] | 4.7 | 0.0968 | 0.0208
 | 0.067 |  |  | 0.066 | 0.9 |  | 64.3 | 4.8 | 0.014 | Cc1c(N(C(=O)c2cc(-c3cc4c(cc3C(=O)N3Cc5ccccc5C[C@H]3CN)CN(C(=O)Cc3ccc(OCCN5CCOCC5)cc3F)CC4)n(C)c2C)c2ccc(O)cc2)cc(C#N)n1C [Example 230] | 2.7 | 0.964 | 0.351
